# US9615577B2, “Herbicidally active cyclic dione compounds, or derivatives therefor, substituted by a phenyl which has an alkynyl-containing substituent” (Syngenta Limited, priority 2012, dated 2017)
# Experiments:
# Format in all cases: in vivo
# [1] = test system: Echinochloa crus-galli (ECHCG); test: Test 1B glasshouse assay for herbicidal activity, post-emergence; conditions: Echinochloa crus-galli, 250 g/ha application rate
# Method: (§1) Seeds of a variety of monocotyledonous and dicotyledonous test plants are sown in standard soil in pots. The plants are cultivated for one day (for pre-emergence) or for about 12 days (range=10-13 days) (for post-emergence) under controlled conditions in a glasshouse (warm climate species at 24/18° C., cool climate species at 20/16° C., both at day/night; 16 hours light; 65% humidity).
# (§2) An “instant formulation”, known as the “IF50”, containing 50 g/liter (i.e. 5% w/v) of the “technical” (i.e. unformulated) active ingredient is prepared by dissolving the active ingredient in a mixture of organic solvents and emulsifier, details of which are provided in the Table below. This IF50 is then mixed with a small, variable amount of acetone to aid dissolution, before addition of a 0.2% v/v aqueous solution of the adjuvant X-77 (which is a mixture of alkyl aryl polyoxyethylene glycols and free fatty acids in isopropanol, CAS Registry number 11097-66-8), as the aqueous diluent, to form an aqueous spray solution which contains a predetermined concentration of the active ingredient (which varies depending on the application rate of the active ingredient to the plants) and 0.2% v/v of the adjuvant X-77. This aqueous spray solution is then sprayed onto the plants, after one day's cultivation (for pre-emergence) or after about 12 days' cultivation (for post-emergence).
# (§3) The test plants are then grown on, in a glasshouse (greenhouse) under controlled conditions (at either 24/18° C. or 20/16° C. (day/night) as mentioned above; 16 hours light; 65% humidity) and are watered twice daily. Either 15 days after application of the herbicide (15 DAA) (for post-emergence), or 20 days after application of the herbicide (20 DAA) (for pre-emergence), the test plants are evaluated visually, and an assessed percentage phytotoxicity score is given for each herbicidal application on each plant species (where 100%=total damage to plant; 0%=no damage to plant).
# (§4) Warm climate (“warm season”) grassy monocotyledonous weeds: Setaria faberi (SETFA), SORVU (Sorghum bicolor (L.) Moench ssp. Bicolor, or Sorghum vulgare Pers.), Digitaria sanguinalis (DIGSA), Echinochloa crus-galli (ECHCG), and Brachiaria plantaginea (BRAPL).
# Note: The herbicidal activity data (e.g. post-emergence) shown above in Biological Example 1B for Comparator compounds X-9 and X-10 is thought likely to have been measured some years ago, probably using a variant of the above-described test method. Also, for the post-emergence activity of X-9 and X-10 it is not currently known exactly how many days after application of the herbicide the phytotoxicity on the plants was measured.
# [2] = test system: Lolium perenne (LOLPE); test: as above; conditions: 360 h, 250 g/ha application rate
# Method: as §1, §2, §3
# (§5) Cool climate (“cool season”) grassy monocotyledonous weeds: Alopecurus myosuroides (ALOMY), Avena fatua (AVEFA), Lolium perenne (LOLPE).
# [3] = test system: Avena fatua (AVEFA); test: as above; conditions: 360 h, 250 g/ha application rate
# Method: as §1, §2, §3, §5
# [4] = test system: Alopecurus myosuroides (ALOMY); test: as above; conditions: 360 h, 250 g/ha application rate
# Method: as §1, §2, §3, §5
# [5] = test system: Triticum aestivum (TRZAW, winter wheat); test: as above; conditions: 360 h, 250 g/ha application rate
# Method: as §1, §2, §3
# (§6) Cool climate crop plants: Triticum aestivum (TRZAW, winter wheat), Brassica napus (BRSNN, rape, also called oilseed rape or rapeseed), Beta vulgaris (BEAVA, sugar beet).
# [6] = test system: Brassica napus (BRSNN, rape); test: as above; conditions: 360 h, 250 g/ha application rate
# Method: as §1, §2, §3, §6
# [7] = test system: Beta vulgaris (BEAVA, sugar beet); test: as above; conditions: 360 h, 250 g/ha application rate
# Method: as §1, §2, §3, §6
# [8] = test system: Digitaria sanguinalis (DIGSA); test: as above; conditions: 360 h, 250 g/ha application rate
# Method: as §1, §2, §3, §4
# [9] = test system: Brachiaria plantaginea (BRAPL); test: as above; conditions: Urochloa plantaginea, 250 g/ha application rate
# Method: as §1, §2, §3, §4
# [10] = test system: Setaria faberi (SETFA); test: as above; conditions: 360 h, 250 g/ha application rate
# Method: as §1, §2, §3, §4
# [11] = test system: SORVU (Sorghum bicolor (L.) Moench ssp. Bicolor, or Sorghum vulgare Pers.); test: as above; conditions: 360 h, 250 g/ha application rate
# Method: as §1, §2, §3, §4
# [12] = test system: Glycine max (GLXMA, soybean); test: as above; conditions: 360 h, 250 g/ha application rate
# Method: as §1, §2, §3
# Warm climate crop plants: Glycine max (GLXMA, soybean).
# [13] = test system: Echinochloa crus-galli (ECHCG); test: Biological Example 2 comparative herbicidal data, post-emergence glasshouse screen; conditions: 312 h, read-out: Post-emergence herbicidal activities (percentage phytotoxicity) ECHCG
# Method: (§7) Seeds of a variety of test species were sown in standard soil in pots. After cultivation for one day (pre-emergence) or after 8 days cultivation (post-emergence) under controlled conditions in a glasshouse (at 24/16° C., day/night; 14 hours light; 65% humidity), the plants were sprayed with an aqueous spray solution derived from the formulation of the technical active ingredient in acetone/I water (50:50) solution containing 0.5% Tween 20 (polyoxyethelyene sorbitan monolaurate, CAS RN 9005-64-5). The test plants were then grown in a glasshouse under controlled conditions in a glasshouse (at 24/16° C., day/night; 14 hours light; 65% humidity) and watered twice daily. After 13 days for pre and post-emergence, the test was evaluated visually for percentage phytotoxicity to the plant (where 100=total damage to plant; 0=no damage to plant).
# (§8) Comparative herbicidal data is given below for certain exemplified compounds with 4-(prop-1-ynyl)-2,6-dimethylphenyl or 4-(chloroethynyl)-2,6-dimethylphenyl headgroups, compared to the corresponding compounds with either 4-ethynyl-2,6-dimethylphenyl or 2,4,6-trimethylphenyl headgroups, as follows. Comparative herbicidal data is also given below for certain exemplified compounds with 4-(prop-1-ynyl)-2-chloro-6-methoxyphenyl headgroups, compared to the corresponding compounds with 4-ethynyl-2-chloro-6-methoxyphenyl or 4-(but-1-ynyl)-2-chloro-6-methoxyphenyl or 4-methyl-2-chloro-6-methoxyphenyl or 2-chloro-6-methoxyphenyl headgroups, as follows.
# (§9) Except where specified otherwise, the glasshouse screen for herbicidal activity is substantially the same as that presented in Biological Example 1A (Test 1A) hereinabove. The weed abbreviations are as defined in Biological Example 1A.
# [14] = test system: Setaria faberi (SETFA); test: as above; conditions: 312 h, read-out: Post-emergence herbicidal activities (percentage phytotoxicity) SETFA
# Method: as §7, §8, §9
# [15] = test system: Alopecurus myosuroides (ALOMY); test: as above; conditions: 312 h, read-out: Post-emergence herbicidal activities (percentage phytotoxicity) ALOMY
# Method: as §7, §8, §9
# [16] = test system: Amaranthus retroflexus (AMARE); test: Test 1A glasshouse assay for herbicidal activity, pre-emergence; conditions: 312 h, evaluated after 13 days, read-out: percentage phytotoxicity AMARE
# Method: as §7
# (§10) Alopecurus myosuroides (ALOMY), Setaria faberi (SETFA), Echinochloa crus-galli (ECHCG), Solanum nigrum (SOLNI), Amaranthus retroflexus (AMARE), Ipomoea hederacea (IPOHE), and Abutilon theophasti Medik. (ABUTH, common English name “velvetleaf”). Of these, Alopecurus myosuroides (ALOMY), Setaria faberi (SETFA), and Echinochloa crus-galli (ECHCG) are grassy monocotyledonous weeds.
# [17] = test system: Echinochloa crus-galli (ECHCG); test: as above; conditions: 312 h, evaluated after 13 days, read-out: percentage phytotoxicity ECHCG
# Method: as §7, §10
# [18] = test system: Abutilon theophasti Medik. (ABUTH); test: as above; conditions: 312 h, evaluated after 13 days, read-out: percentage phytotoxicity ABUTH
# Method: as §7, §10
# [19] = test system: Setaria faberi (SETFA); test: as above; conditions: 312 h, evaluated after 13 days, read-out: percentage phytotoxicity SETFA
# Method: as §7, §10
# [20] = test system: Alopecurus myosuroides (ALOMY); test: as above; conditions: 312 h, evaluated after 13 days, read-out: percentage phytotoxicity ALOMY
# Method: as §7, §10
# [21] = test system: Amarantus retroflexus (AMARE); test: Biological Example 2 comparative herbicidal data, post-emergence glasshouse screen; conditions: Amaranthus retroflexus, read-out: Post-emergence herbicidal activities (percentage phytotoxicity) AMARE
# [22] = test system: Amaranthus retroflexus (AMARE); test: Test 1A glasshouse assay for herbicidal activity, post-emergence; conditions: 312 h, evaluated after 13 days, read-out: percentage phytotoxicity AMARE
# Method: as §7, §10
# [23] = test system: Echinochloa crus-galli (ECHCG); test: as above; conditions: 312 h, evaluated after 13 days, read-out: percentage phytotoxicity ECHCG
# Method: as §7, §10
# [24] = test system: Abutilon theophasti Medik. (ABUTH); test: as above; conditions: 312 h, evaluated after 13 days, read-out: percentage phytotoxicity ABUTH
# Method: as §7, §10
# [25] = test system: Setaria faberi (SETFA); test: as above; conditions: 312 h, evaluated after 13 days, read-out: percentage phytotoxicity SETFA
# Method: as §7, §10
# [26] = test system: Alopecurus myosuroides (ALOMY); test: as above; conditions: 312 h, evaluated after 13 days, read-out: percentage phytotoxicity ALOMY
# Method: as §7, §10
# [27] = test system: Abutilon theophasti Medik. (ABUTH); test: Biological Example 2 comparative herbicidal data, post-emergence glasshouse screen; conditions: read-out: Post-emergence herbicidal activities (percentage phytotoxicity) ABUTH
smiles,measurement,setting,value
CC#Cc1cc(Cl)c(C2C(=O)C3CCC(C3)C2=O)c(OCCOC)c1 (stereo not drawn) [Compound A-18],pest or weed control at 250 g/ha,[1],90%
same,pest or weed control at 250 g/ha,[2],0%
same,pest or weed control at 250 g/ha,[3],20%
same,pest or weed control at 250 g/ha,[4],0%
same,plant injury at 250 g/ha,[5],10%
same,plant injury at 250 g/ha,[6],30%
same,plant injury at 250 g/ha,[7],30%
same,pest or weed control at 250 g/ha,[8],90%
same,pest or weed control at 250 g/ha,[9],70%
same,pest or weed control at 250 g/ha,[10],80%
same,pest or weed control at 250 g/ha,[11],100%
same,plant injury at 250 g/ha,[12],20%
"C#Cc1cc(C)c(C2C(=O)CC(c3ccccn3)CC2=O)c(C)c1 (stereo not drawn) [Compound X-4, reference compound]",pest or weed control at 8 g/ha,[13]; 8 g/ha application rate,20%
same,pest or weed control at 30 g/ha,[13]; 30 g/ha application rate,40%
same,pest or weed control at 8 g/ha,[14]; 8 g/ha application rate,40%
same,pest or weed control at 30 g/ha,[14]; 30 g/ha application rate,50%
same,pest or weed control at 8 g/ha,[15]; 8 g/ha application rate,40%
same,pest or weed control at 30 g/ha,[15]; 30 g/ha application rate,60%
same,pest or weed control at 30 g/ha,[16]; 30 g/ha,0%
same,pest or weed control at 250 g/ha,[16]; 250 g/ha,0%
same,pest or weed control at 30 g/ha,[17]; 30 g/ha,30%
same,pest or weed control at 250 g/ha,[17]; 250 g/ha,90%
same,pest or weed control at 30 g/ha,[18]; 30 g/ha,0%
same,pest or weed control at 250 g/ha,[18]; 250 g/ha,0%
same,pest or weed control at 30 g/ha,[19]; 30 g/ha,40%
same,pest or weed control at 250 g/ha,[19]; 250 g/ha,100%
same,pest or weed control at 30 g/ha,[20]; 30 g/ha,0%
same,pest or weed control at 250 g/ha,[20]; 250 g/ha,70%
same,pest or weed control at 8 g/ha,[21]; 8 g/ha application rate,0%
same,pest or weed control at 30 g/ha,[21]; 30 g/ha application rate,0%
same,pest or weed control at 30 g/ha,[22]; 30 g/ha,0%
same,pest or weed control at 250 g/ha,[22]; 250 g/ha,0%
same,pest or weed control at 30 g/ha,[23]; 30 g/ha,40%
same,pest or weed control at 250 g/ha,[23]; 250 g/ha,100%
same,pest or weed control at 30 g/ha,[24]; 30 g/ha,0%
same,pest or weed control at 250 g/ha,[24]; 250 g/ha,80%
same,pest or weed control at 30 g/ha,[25]; 30 g/ha,50%
same,pest or weed control at 250 g/ha,[25]; 250 g/ha,100%
same,pest or weed control at 30 g/ha,[26]; 30 g/ha,60%
same,pest or weed control at 250 g/ha,[26]; 250 g/ha,80%
same,pest or weed control at 8 g/ha,[27]; 8 g/ha application rate,0%
same,pest or weed control at 30 g/ha,[27]; 30 g/ha application rate,0%
